Laboratory results taken from ChEMBL document CHEMBL1148243, “Indoline derivatives as 5-HT(2C) receptor agonists” (Bioorg Med Chem Lett, 2004).
pEC50, pKi: −log10 of the molar value.

Legend:
[1] = biological target: T1, 5-hydroxytryptamine receptor 2C (Homo sapiens, UniProt P28335); test: Functional activity against human 5-hydroxytryptamine 2C receptor expressed in CHO cells using fluorometric imaging plate reader; format: cell-based
T1 sequence (P28335 whole entry): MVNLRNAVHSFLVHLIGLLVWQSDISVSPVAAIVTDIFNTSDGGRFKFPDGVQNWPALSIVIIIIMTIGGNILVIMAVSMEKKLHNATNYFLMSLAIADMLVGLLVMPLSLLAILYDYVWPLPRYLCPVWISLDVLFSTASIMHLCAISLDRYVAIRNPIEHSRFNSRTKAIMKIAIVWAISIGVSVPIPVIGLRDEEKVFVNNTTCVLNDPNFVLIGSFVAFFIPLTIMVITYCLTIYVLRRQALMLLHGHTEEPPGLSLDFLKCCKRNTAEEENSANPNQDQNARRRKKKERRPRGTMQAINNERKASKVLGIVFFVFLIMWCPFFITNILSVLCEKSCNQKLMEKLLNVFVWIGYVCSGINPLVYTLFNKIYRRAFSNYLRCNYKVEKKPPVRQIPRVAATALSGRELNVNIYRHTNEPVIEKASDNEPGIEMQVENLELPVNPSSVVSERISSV

[2] = biological target: T1, 5-hydroxytryptamine receptor 2C; test: Affinity for human 5-hydroxytryptamine 2C receptor expressed in mammalian cell line
[3] = biological target: T2, 5-hydroxytryptamine receptor 2A (Homo sapiens, UniProt P28223); test: Affinity for human 5-hydroxytryptamine 2A receptor expressed in mammalian cell line
T2 sequence (P28223 whole entry): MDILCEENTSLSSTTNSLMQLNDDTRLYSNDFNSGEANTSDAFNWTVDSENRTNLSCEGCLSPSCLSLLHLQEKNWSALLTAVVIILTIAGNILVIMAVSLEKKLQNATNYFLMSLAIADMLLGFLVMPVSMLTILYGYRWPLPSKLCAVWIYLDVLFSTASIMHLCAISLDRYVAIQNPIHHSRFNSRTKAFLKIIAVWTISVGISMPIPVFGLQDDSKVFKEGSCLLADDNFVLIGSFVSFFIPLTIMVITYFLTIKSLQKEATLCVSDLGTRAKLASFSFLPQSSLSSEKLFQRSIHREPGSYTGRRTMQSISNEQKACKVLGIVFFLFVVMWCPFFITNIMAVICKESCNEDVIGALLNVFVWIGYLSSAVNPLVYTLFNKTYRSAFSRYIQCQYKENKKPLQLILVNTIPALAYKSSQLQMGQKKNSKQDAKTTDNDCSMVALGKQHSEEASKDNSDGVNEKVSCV

[4] = biological target: T2, 5-hydroxytryptamine receptor 2A; test: Functional activity against human 5-hydroxytryptamine 2A receptor expressed in CHO cells using fluorometric imaging plate reader; format: cell-based
[5] = biological target: T2, 5-hydroxytryptamine receptor 2A; test: Relative efficacy against human 5-hydroxytryptamine 2A receptor expressed in CHO cells using fluorometric imaging plate reader relative to 10 uM 5-HT; format: functional, cell-based
[6] = biological target: T3, 5-hydroxytryptamine receptor 2B (Homo sapiens, UniProt P41595); test: Functional activity against human 5-hydroxytryptamine 2B receptor expressed in CHO cells using fluorometric imaging plate reader; format: cell-based
T3 sequence (P41595 whole entry): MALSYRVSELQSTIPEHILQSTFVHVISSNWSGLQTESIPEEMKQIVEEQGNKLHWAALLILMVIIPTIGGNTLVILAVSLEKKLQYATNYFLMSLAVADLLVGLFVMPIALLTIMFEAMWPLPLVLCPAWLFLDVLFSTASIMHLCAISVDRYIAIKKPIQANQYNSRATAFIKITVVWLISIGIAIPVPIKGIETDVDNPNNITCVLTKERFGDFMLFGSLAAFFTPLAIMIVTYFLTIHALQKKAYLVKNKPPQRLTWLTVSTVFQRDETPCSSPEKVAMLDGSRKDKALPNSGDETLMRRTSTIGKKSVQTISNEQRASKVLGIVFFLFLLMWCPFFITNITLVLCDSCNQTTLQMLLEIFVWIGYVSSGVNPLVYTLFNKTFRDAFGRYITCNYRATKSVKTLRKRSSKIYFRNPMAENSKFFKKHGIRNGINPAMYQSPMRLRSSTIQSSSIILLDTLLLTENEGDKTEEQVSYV

[7] = biological target: T3, 5-hydroxytryptamine receptor 2B; test: Relative efficacy against human 5-hydroxytryptamine 2B receptor expressed in CHO cells using fluorometric imaging plate reader relative to 10 uM 5-HT; format: functional, cell-based
[8] = biological target: T3, 5-hydroxytryptamine receptor 2B; test: Affinity for human 5-hydroxytryptamine 2B receptor expressed in mammalian cell line
Rattus norvegicus [9] = test: Ability of compound to decrease food intake in rats after subcutaneous administration; format: functional; conditions: sc, read-out: MED
Rattus norvegicus [10] = test: Ability of compound to decrease food intake in rats after oral administration; format: functional; conditions: read-out: MED

| Compound | pEC50 [1] | pKi [2] | pKi [3] | pEC50 [4] | Relative efficacy [5] | pEC50 [6] | Relative efficacy [7] | pKi [8] | minimal effective dose (Rattus norvegicus [9]) | minimal effective dose (Rattus norvegicus [10]) |
| --- | --- | --- | --- | --- | --- | --- | --- | --- | --- | --- |
| C[C@H](N)CN1CCc2cc(F)c(I)cc21 | 7.19 | 7.77 | 6.86 | 6.36 | 54% | 7.66 | 71% | 7.42 |  |  |
| CSc1cc2c(cc1F)CCN2C[C@H](C)N | 8.17 | 8.49 | 7.28 | 7.12 | 87% | 8.39 | 72% | 7.68 | 0.3 mg/kg | 3 mg/kg |
| C[C@H](N)Cn1ccc2cc(F)c(Cl)cc21 | 7.74 | 8.64 | 7.42 |  | 72% | 8.37 | 71% | 8.29 |  |  |
| Clc1cccc(N2CCNCC2)c1 [CHLOROPHENYLPIPERAZINE] |  |  |  |  |  |  |  |  | 1 mg/kg | 10 mg/kg |
| CCSc1ccc2c(c1)N(C[C@H](C)N)CC2 | 7.40 | 7.80 | 6.74 | 6.42 | 71% | 7.14 | 67% | 6.72 |  |  |
| C[C@H](N)CN1CCc2ccc(Cl)cc21 | 7.36 | 7.89 | 6.44 | 6.22 | 55% | 8.19 | 76% | 7.27 |  |  |
| C[C@H](N)CN1CCc2cc(F)c(C(F)(F)F)cc21 | 6.89 | 7.59 | 6.36 | 5.97 | 45% | 7.31 | 86% | 7.06 |  |  |
| C[C@H](N)CN1CCc2ccc(Br)cc21 | 7.36 | 7.62 | 6.45 | 6.14 | 54% | 7.96 | 78% | 7.34 | 3 mg/kg | 30 mg/kg |
| CCSc1cc2c(cc1F)CCN2C[C@H](C)N | 7.68 | 8.19 | 7.24 | 6.74 | 80% | 7.51 | 66% | 7.21 |  |  |
| C[C@H](N)CN1CCc2cc(F)c(Cl)cc21 | 7.51 | 7.85 | 6.78 | 6.44 | 66% | 8.14 | 77% | 7.51 |  |  |
| CSc1ccc2c(c1)N(C[C@H](C)N)CC2 | 7.59 | 8.24 | 6.77 | 6.79 | 72% | 8.00 | 78% | 7.05 |  |  |
| C[C@H](N)CN1CCc2ccc3c(c21)CCCO3 | 7.55 | 7.42 | 6.40 | 6.90 | 71% | 7.44 | 67% | 6.45 |  |  |
| C[C@H](N)CN1CCc2ccc3c(c21)CCO3 | 8.35 | 8.06 | 6.95 | 7.21 | 81% | 8.52 | 74% | 7.31 | 0.1 mg/kg | 1 mg/kg |
